# Assays:
# Format in all cases: physicochemical
# [1] = Thermogravimetric analysis (TGA); conditions: for Weight Change: ramp 10.00 °C/min to 300.00 °C; for % Change in weight: ramp 10.00 °C/min to 400.00 °C
# Protocol: Unless otherwise noted, TGA thermograms were acquired using a TA Instruments Q500 Thermogravimetric Analyzer (New Castle, Del., USA). Samples were weighed out into the pan. Except as noted below, the temperature was ramped from 25.00° C. to 400.00° C. at 10.00° C./minute.
# A TGA thermogram for tosylate salt prepared using the steps described in Variation 2 was acquired using a Mettler Toledo Thermogravimetric Analyzer/Differential Scanning Calorimeter 1. The temperature was ramped from 25° C. to 400° C. at 10° C./minute.
# [2] = Thermogravimetric analysis (TGA); conditions: ramp 10.00 °C/min to 300.00 °C
# [3] = Dynamic vapor sorption (DVS) isotherm
# Protocol: 1 model from Surface Measurement Systems Ltd. (Alperton, Middlesex, UK). A moisture adsorption desorption isotherm was performed as outlined below. The standard isotherm run is a cycle starting at RH 0% to RH 95% at 5% intervals, followed by drying to RH 0% in 5% RH intervals.
# [4] = TGA, start about 25 °C, stop 120 °C, tosylate salt
# [5] = TGA, start about 25 °C, stop 250 °C, tosylate salt
smiles,measurement,setting,value
"Cn1ncnc1[C@H]1c2n[nH]c(=O)c3cc(F)cc(c23)N[C@@H]1c1ccc(F)cc1 [compound 3, (8S,9R)-5-fluoro-8-(4-fluorophenyl)-9-(1-methyl-1H-1,2,4-triazol-5-yl)-8,9-dihydro-2H-pyrido[4,3,2-de]phthalazin-3(7H)-one]",Weight Change,[1]; TGA at 152 °C,2.584%
same,Weight Change,[1]; TGA at 205 °C,3.42%
same,Weight Change,[1]; TGA at 250 °C,5.193%
same,Weight Change,[2]; TGA at 120 °C,2.33%
same,Weight Change,[2]; TGA at 178 °C,2.829%
"Cn1ncnc1[C@H]1c2n[nH]c(=O)c3cc(F)cc(c23)N[C@@H]1c1ccc(F)cc1 [compound 24, (8S,9R)-5-fluoro-8-(4-fluorophenyl)-9-(1-methyl-1H-1,2,4-triazol-5-yl)-8,9-dihydro-2H-pyrido[4,3,2-de]phthalazin-3(7H)-one]",weight loss,[1]; TGA at 223.8 °C,17.47%
same,weight loss,"[1]; TGA, ambient to 120 °C",0.9388%
"Cn1ncnc1[C@H]1c2n[nH]c(=O)c3cc(F)cc(c23)N[C@@H]1c1ccc(F)cc1 [compound 19, (8S,9R)-5-fluoro-8-(4-fluorophenyl)-9-(1-methyl-1H-1,2,4-triazol-5-yl)-8,9-dihydro-2H-pyrido[4,3,2-de]phthalazin-3(7H)-one]",Weight Change,[1]; TGA at 161 °C,4.256%
same,Weight Change,[2]; TGA at 120 °C,1.054%
same,Weight Change,[2]; TGA at 174 °C,5.977%
same,Weight Change,[2]; TGA at 185 °C,7.82%
same,Weight Change,[2]; TGA at 238 °C,8.874%
"Cn1ncnc1[C@H]1c2n[nH]c(=O)c3cc(F)cc(c23)N[C@@H]1c1ccc(F)cc1 [compound 11, (8S,9R)-5-fluoro-8-(4-fluorophenyl)-9-(1-methyl-1H-1,2,4-triazol-5-yl)-8,9-dihydro-2H-pyrido[4,3,2-de]phthalazin-3(7H)-one]",weight loss,[1]; TGA at 134.8 °C,5.72%
"Cn1ncnc1[C@H]1c2n[nH]c(=O)c3cc(F)cc(c23)N[C@@H]1c1ccc(F)cc1 [compound 12, (8S,9R)-5-fluoro-8-(4-fluorophenyl)-9-(1-methyl-1H-1,2,4-triazol-5-yl)-8,9-dihydro-2H-pyrido[4,3,2-de]phthalazin-3(7H)-one]",weight loss,[1]; TGA at 139.06 °C,7.034%
"Cc1ccc(S(=O)(=O)O)cc1.Cn1ncnc1[C@H]1c2n[nH]c(=O)c3cc(F)cc(c23)N[C@@H]1c1ccc(F)cc1 [compound 8, (8S,9R)-5-fluoro-8-(4-fluorophenyl)-9-(1-methyl-1H-1,2,4-triazol-5-yl)-8,9-dihydro-2H-pyrido[4,3,2-de]phthalazin-3(7H)-one tosylate salt]",% Change in weight,"[1]; TGA, start 24.9 °C, stop 274.33 °C",2.071%
same,% Change in weight,"[1]; TGA, start 24.9 °C, stop 320 °C",19.97%
same,% Change in weight,"[1]; TGA, start 24.9 °C, stop 335 °C",34.56%
same,% Change in weight,"[1]; TGA, start 24.9 °C, stop 363.03 °C",50.39%
same,% Change in weight,"[1]; TGA, start 24.9 °C, stop 394.92 °C",54.39%
same,% Change in weight,[1]; [4],0.06696%
same,weight gain (DVA),[3]; from 0%-95% RH,0.1574%
"Cn1ncnc1[C@H]1c2n[nH]c(=O)c3cc(F)cc(c23)N[C@@H]1c1ccc(F)cc1 [compound 1, (8S,9R)-5-fluoro-8-(4-fluorophenyl)-9-(1-methyl-1H-1,2,4-triazol-5-yl)-8,9-dihydro-2H-pyrido[4,3,2-de]phthalazin-3(7H)-one]",Weight Change,[1]; TGA at 225 °C,9.125%
same,Weight Change,[1]; TGA at 252 °C,9.265%
same,Weight Change,[2]; TGA at 120 °C,1.45%
same,Weight Change,[2]; TGA at 238 °C,9.214%
same,Weight Change,[2]; TGA at […],4.068%
"Cc1ccc(S(=O)(=O)O)cc1.Cn1ncnc1[C@H]1c2n[nH]c(=O)c3cc(F)cc(c23)N[C@@H]1c1ccc(F)cc1 [compound 7, (8S,9R)-5-fluoro-8-(4-fluorophenyl)-9-(1-methyl-1H-1,2,4-triazol-5-yl)-8,9-dihydro-2H-pyrido[4,3,2-de]phthalazin-3(7H)-one tosylate salt]",% Change in weight,"[1]; TGA, start 25.5 °C, stop 334 °C",26.55%
same,% Change in weight,[1]; [4],0.2109%
same,% Change in weight,[1]; [5],2.552%
"Cc1ccc(S(=O)(=O)O)cc1.Cn1ncnc1[C@H]1c2n[nH]c(=O)c3cc(F)cc(c23)N[C@@H]1c1ccc(F)cc1 [compound 6, (8S,9R)-5-fluoro-8-(4-fluorophenyl)-9-(1-methyl-1H-1,2,4-triazol-5-yl)-8,9-dihydro-2H-pyrido[4,3,2-de]phthalazin-3(7H)-one tosylate salt]",% Change in weight,"[1]; TGA, start 25.2 °C, stop 338.56 °C",24.56%
same,% Change in weight,[1]; [4],0.0388%
same,% Change in weight,[1]; [5],0.5425%
"Cc1ccc(S(=O)(=O)O)cc1.Cn1ncnc1[C@H]1c2n[nH]c(=O)c3cc(F)cc(c23)N[C@@H]1c1ccc(F)cc1 [(8S,9R)-5-fluoro-8-(4-fluorophenyl)-9-(1-methyl-1H-1,2,4-triazol-5-yl)-8,9-dihydro-2H-pyrido[4,3,2-de]phthalazin-3(7H)-one mono-tosylate salt]",stability to heat (TGA trace),"[1]; 25 °C to 400 °C at 10 °C/minute, prior to the onset of decomposition at the melting point",stable to heat
same,hygroscopicity (DVS),"[3]; 25 °C, humidity 0% to 95%",not hygroscopic
same,weight gain (DVS),"[3]; 25 °C, humidity increased from 0% to 95%",less than 1%
same,Change in Mass (%) Desorption,[3]; Target % P/Po 0.0,−0.0015%
same,Change in Mass (%) Desorption,[3]; Target % P/Po 5.0,0.0203%
same,Change in Mass (%) Desorption,[3]; Target % P/Po 10.0,0.0326%
same,Change in Mass (%) Desorption,[3]; Target % P/Po 15.0,0.0421%
same,Change in Mass (%) Desorption,[3]; Target % P/Po 20.0,0.0513%
same,Change in Mass (%) Desorption,[3]; Target % P/Po 25.0,0.0649%
same,Change in Mass (%) Desorption,[3]; Target % P/Po 30.0,0.0791%
same,Change in Mass (%) Desorption,[3]; Target % P/Po 35.0,0.0947%
same,Change in Mass (%) Desorption,[3]; Target % P/Po 40.0,0.1084%
same,Change in Mass (%) Desorption,[3]; Target % P/Po 45.0,0.1266%
same,Change in Mass (%) Desorption,[3]; Target % P/Po 50.0,0.1456%
same,Change in Mass (%) Desorption,[3]; Target % P/Po 55.0,0.1668%
same,Change in Mass (%) Desorption,[3]; Target % P/Po 60.0,0.1895%
same,Change in Mass (%) Desorption,[3]; Target % P/Po 65.0,0.2192%
same,Change in Mass (%) Desorption,[3]; Target % P/Po 70.0,0.2535%
same,Change in Mass (%) Desorption,[3]; Target % P/Po 75.0,0.2919%
same,Change in Mass (%) Desorption,[3]; Target % P/Po 80.0,0.3402%
same,Change in Mass (%) Desorption,[3]; Target % P/Po 85.0,0.4113%
same,Change in Mass (%) Desorption,[3]; Target % P/Po 90.0,0.5230%
same,Change in Mass (%) Desorption,[3]; Target % P/Po 95.0,0.7473%
"Cn1ncnc1[C@H]1c2n[nH]c(=O)c3cc(F)cc(c23)N[C@@H]1c1ccc(F)cc1 [compound 21, (8S,9R)-5-fluoro-8-(4-fluorophenyl)-9-(1-methyl-1H-1,2,4-triazol-5-yl)-8,9-dihydro-2H-pyrido[4,3,2-de]phthalazin-3(7H)-one]",weight loss,[1]; TGA at 142.46 °C,3.7%
same,weight loss,[1]; TGA at 256.48 °C,4.259%
"Cc1ccc(S(=O)(=O)O)cc1.Cn1ncnc1[C@H]1c2n[nH]c(=O)c3cc(F)cc(c23)N[C@@H]1c1ccc(F)cc1 [compound 5, (8S,9R)-5-fluoro-8-(4-fluorophenyl)-9-(1-methyl-1H-1,2,4-triazol-5-yl)-8,9-dihydro-2H-pyrido[4,3,2-de]phthalazin-3(7H)-one tosylate salt]",% Change in weight,"[1]; TGA, start 25.13 °C, stop 340.46 °C",43.54%
same,% Change in weight,[1]; [4],0.1231%
same,% Change in weight,[1]; [5],0.2894%

# Source: patent US10189837B2, “Crystalline (8S,9R)-5-fluoro-8-(4-fluorophenyl)-9-(1-methyl-1H-1,2,4-triazol-5-yl)-8,9-dihydro-2H-pyrido[4,3,2-de]phthalazin-3(7H)-one tosylate salt” (Medivation Technologies, LLC, priority 2010, dated 2019)
